According to ChEMBL document CHEMBL2177100, “Structural optimization and structure-activity relationships of N2-(4-(4-Methylpiperazin-1-yl)phenyl)-N8-phenyl-9H-purine-2,8-diamine derivatives, a new class of reversible kinase inhibitors targeting both EGFR-activating and resistance mutations” (J Med Chem, 2012):
Active and inactive are the calls of the source. The rule behind the calls is not given here.

Assays:
[1] = tested on: HepG2; experiment: Cytotoxicity against human HepG2 cells incubated for 72 hrs by MTT assay; type: functional, cell-based; conditions: HepG2, 72 h
[2] = tested on: NCI-H1975; experiment: Cytotoxicity against human NCI-H1975 cells incubated for 72 hrs by MTT assay; type: functional, cell-based; conditions: NCI-H1975, 72 h
[3] = Cytotoxicity against human HCC827 cells incubated for 72 hrs by MTT assay; type: functional, cell-based; conditions: HCC827, 72 h
[4] = tested on: Mus musculus; experiment: Toxicity in human NCI-H1975 cells xenografted BALB/c mouse assessed as body weight loss at 20 mg/kg, po qd; type: organism-based; parameters: dose 20 mg/kg, route oral; conditions: in vivo
[5] = tested on: NCI-H1975; experiment: Antitumor activity against human NCI-H1975 cells xenografted in BALB/c mouse assessed as inhibition of tumor growth at 20 mg/kg, po qd; type: functional; conditions: read-out: TGI
[6] = molecular target: Epidermal growth factor receptor (Homo sapiens, UniProt P00533, L858R/T790M); experiment: Inhibition of EGFR L858R/T790M mutant; type: protein assay
Epidermal growth factor receptor (Homo sapiens, UniProt P00533, L858R/T790M), sequence (P00533 25-1210 T790M/L858R limits assumed): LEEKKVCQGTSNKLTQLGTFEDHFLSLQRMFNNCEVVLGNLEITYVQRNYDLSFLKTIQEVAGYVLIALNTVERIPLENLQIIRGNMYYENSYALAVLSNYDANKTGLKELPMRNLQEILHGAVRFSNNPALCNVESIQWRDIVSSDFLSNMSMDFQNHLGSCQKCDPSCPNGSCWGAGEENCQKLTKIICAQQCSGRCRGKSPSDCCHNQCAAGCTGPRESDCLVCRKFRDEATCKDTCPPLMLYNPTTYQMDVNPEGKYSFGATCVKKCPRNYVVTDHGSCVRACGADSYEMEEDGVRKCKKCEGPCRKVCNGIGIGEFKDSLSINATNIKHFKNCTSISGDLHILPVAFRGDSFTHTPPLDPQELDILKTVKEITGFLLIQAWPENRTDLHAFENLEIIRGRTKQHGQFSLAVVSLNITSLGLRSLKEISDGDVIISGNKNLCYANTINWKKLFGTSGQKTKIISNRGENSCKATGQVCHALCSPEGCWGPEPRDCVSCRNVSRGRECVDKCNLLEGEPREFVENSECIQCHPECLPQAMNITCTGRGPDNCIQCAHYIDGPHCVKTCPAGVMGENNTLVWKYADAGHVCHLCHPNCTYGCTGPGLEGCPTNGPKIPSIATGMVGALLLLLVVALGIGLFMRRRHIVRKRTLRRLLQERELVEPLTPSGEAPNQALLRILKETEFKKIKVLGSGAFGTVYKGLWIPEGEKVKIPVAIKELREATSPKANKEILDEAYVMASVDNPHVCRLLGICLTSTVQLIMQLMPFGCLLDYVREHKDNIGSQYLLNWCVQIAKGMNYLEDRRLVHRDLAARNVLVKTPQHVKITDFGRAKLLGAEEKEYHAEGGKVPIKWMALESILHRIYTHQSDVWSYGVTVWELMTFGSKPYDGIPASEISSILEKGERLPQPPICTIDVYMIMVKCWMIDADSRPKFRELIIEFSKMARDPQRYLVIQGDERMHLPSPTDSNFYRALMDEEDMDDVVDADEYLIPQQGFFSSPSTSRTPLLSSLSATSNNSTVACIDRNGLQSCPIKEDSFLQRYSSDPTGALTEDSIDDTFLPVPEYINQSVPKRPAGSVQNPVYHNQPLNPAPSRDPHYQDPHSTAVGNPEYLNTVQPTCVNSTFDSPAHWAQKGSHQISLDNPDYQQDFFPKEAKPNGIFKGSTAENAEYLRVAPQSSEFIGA

[7] = molecular target: Epidermal growth factor receptor (Homo sapiens, UniProt P00533, L858R); experiment: Inhibition of EGFR L858R mutant; type: protein assay
Epidermal growth factor receptor (Homo sapiens, UniProt P00533, L858R), sequence (P00533 25-1210 L858R limits assumed): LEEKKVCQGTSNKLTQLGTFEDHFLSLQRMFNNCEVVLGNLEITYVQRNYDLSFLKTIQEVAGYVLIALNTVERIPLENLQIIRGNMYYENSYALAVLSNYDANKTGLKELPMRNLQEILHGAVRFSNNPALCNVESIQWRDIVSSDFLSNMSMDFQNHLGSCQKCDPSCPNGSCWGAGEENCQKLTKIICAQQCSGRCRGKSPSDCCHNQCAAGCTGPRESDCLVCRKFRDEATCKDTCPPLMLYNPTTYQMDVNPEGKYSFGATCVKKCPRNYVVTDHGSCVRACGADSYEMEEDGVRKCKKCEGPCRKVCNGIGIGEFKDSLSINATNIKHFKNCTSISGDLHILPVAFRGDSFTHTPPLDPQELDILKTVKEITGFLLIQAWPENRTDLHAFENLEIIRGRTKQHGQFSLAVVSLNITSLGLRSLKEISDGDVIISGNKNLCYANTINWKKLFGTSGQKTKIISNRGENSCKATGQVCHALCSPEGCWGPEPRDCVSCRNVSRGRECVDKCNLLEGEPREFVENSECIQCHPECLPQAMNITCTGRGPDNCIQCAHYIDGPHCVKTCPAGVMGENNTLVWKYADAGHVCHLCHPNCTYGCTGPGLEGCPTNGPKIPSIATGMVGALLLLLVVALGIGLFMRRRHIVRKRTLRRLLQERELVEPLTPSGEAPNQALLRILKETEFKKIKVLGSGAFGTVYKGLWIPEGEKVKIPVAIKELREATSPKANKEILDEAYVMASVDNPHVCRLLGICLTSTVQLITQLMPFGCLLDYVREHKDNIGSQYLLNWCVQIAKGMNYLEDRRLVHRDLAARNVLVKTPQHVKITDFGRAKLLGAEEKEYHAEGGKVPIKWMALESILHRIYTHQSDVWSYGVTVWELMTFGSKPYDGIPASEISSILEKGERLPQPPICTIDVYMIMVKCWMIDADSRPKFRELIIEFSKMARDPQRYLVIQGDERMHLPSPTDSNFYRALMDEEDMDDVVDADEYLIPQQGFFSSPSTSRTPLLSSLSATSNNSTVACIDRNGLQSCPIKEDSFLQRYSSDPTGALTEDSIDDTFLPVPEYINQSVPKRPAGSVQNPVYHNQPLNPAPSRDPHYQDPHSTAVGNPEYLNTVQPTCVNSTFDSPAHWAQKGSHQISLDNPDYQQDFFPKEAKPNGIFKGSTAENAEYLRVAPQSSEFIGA

[8] = tested on: HCC827; experiment: Antitumor activity against human HCC827 cells xenografted in BALB/c mouse assessed as reduction tumor volume at 100 mg/kg, po qd; type: functional, organism-based; parameters: dose 100 mg/kg
[9] = tested on: PC-9; experiment: Cytotoxicity against human PC9 cells incubated for 72 hrs by MTT assay; type: functional, cell-based; conditions: PC-9, 72 h

| Structure (SMILES) | IC50 [1] [nM] | IC50 [2] [nM] | IC50 [3] [nM] | also measured |
| --- | --- | --- | --- | --- |
| CN1CCN(c2ccc(Nc3ncc4nc(Nc5cccc(NC(=O)c6ccccc6)c5)n(C5CCCC5)c4n3)cc2)CC1 | 2600 | 2120 | 15 |  |
| CN(C)C/C=C/C(=O)Nc1cc2c(Nc3ccc(F)c(Cl)c3)ncnc2cc1O[C@H]1CCOC1 [AFATINIB] |  |  |  | Activity [4]: 6.6%; inhibition in vivo at 20 mg/kg [5]: 74% |
| CN1CCN(c2ccc(Nc3ncc4nc(Nc5cccc(Cl)c5)n(C5CCCC5)c4n3)cc2)CC1 | 4800 | 390 | < 0.01 |  |
| CN1CCN(c2ccc(Nc3ncc4nc(Nc5cccc(O)c5)n(C5CCCC5)c4n3)cc2)CC1 | 4200 | 1020 | 0.72 |  |
| c1ccc(Nc2nc3cnc(Nc4ccc(N5CCOCC5)cc4)nc3n2C2CCCC2)cc1 | > 5000 | 9200 | 0.66 |  |
| CN1CCN(c2ccc(Nc3ncc4nc(Nc5cccc(C(=O)Nc6ccc(Cl)cc6)c5)n(C5CCCC5)c4n3)cc2)CC1 | > 5000 | 4010 | 2900 |  |
| Cc1cccc(Nc2nc3cnc(Nc4ccc(N5CCN(C)CC5)cc4)nc3n2C2CCCC2)c1 | 4700 | 560 | < 0.01 |  |
| CC(=O)Nc1ccc(Nc2ncc3nc(Nc4ccccc4)n(C4CCCC4)c3n2)cc1 | > 5000 | 1210 | 0.47 |  |
| Cc1cc(C)cc(-n2c(Nc3ccccc3)nc3cnc(Nc4ccc(N5CCN(C)CC5)cc4)nc32)c1 | > 5000 | 1910 | 1 |  |
| CN1CCN(c2ccc(Nc3ncc4nc(Nc5cccc([N+](=O)[O-])c5)n(C5CCCC5)c4n3)cc2)CC1 | > 5000 | 980 | < 0.01 |  |
| CC1CCN(c2ccc(Nc3ncc4nc(Nc5ccccc5)n(C5CCCC5)c4n3)cc2)CC1 | > 5000 | 9800 | 32 |  |
| CN1CCN(c2ccc(Nc3ncc4nc(Nc5cc(Cl)ccc5Cl)n(C5CCCC5)c4n3)cc2)CC1 | > 5000 | 2540 | 0.01 |  |
| CN1CCN(c2ccc(Nc3ncc4nc(Nc5ccc(Br)cc5F)n(C5CCCC5)c4n3)cc2)CC1 | > 5000 | 1120 | 2.3 |  |
| CN1CCN(c2ccc(Nc3ncc4nc(Nc5ccccc5)n(-c5ccccc5)c4n3)cc2)CC1 | > 5000 | 1830 | 1.7 |  |
| CC(C)n1c(Nc2ccccc2)nc2cnc(Nc3ccc(N4CCN(C)CC4)cc3)nc21 | > 5000 | 960 | 0.1 |  |
| OCCNc1ccc(Nc2ncc3nc(Nc4ccccc4)n(C4CCCC4)c3n2)cc1 | > 5000 | 2810 | 2.8 |  |
| CN1CCN(c2ccc(Nc3ncc4nc(Nc5ccccc5)[nH]c4n3)cc2)CC1 | > 5000 | 18100 | 233 | IC50 [6]: 978 nM; IC50 [7]: 98 nM |
| CN1CCN(c2ccc(Nc3ncc4nc(Nc5ccccc5)n(C5CCCCC5)c4n3)cc2)CC1 | > 5000 | 390 | < 0.01 |  |
| COc1cc2ncnc(Nc3ccc(F)c(Cl)c3)c2cc1OCCCN1CCOCC1 [GEFITINIB] |  |  |  | TGI [8]: Active; IC50 [9]: 14 nM |
| CN1CCN(c2ccc(Nc3ncc4nc(Nc5ccc(Br)cc5)n(C5CCCC5)c4n3)cc2)CC1 | > 5000 | 2090 | 2.2 |  |
| CN1CCN(c2ccc(Nc3ncc4nc(Nc5ccccc5)n(C)c4n3)cc2)CC1 | > 5000 | 6060 | 24 |  |
| C#Cc1cccc(Nc2nc3cnc(Nc4ccc(N5CCN(C)CC5)cc4)nc3n2C2CCCC2)c1 | 4900 | 650 | < 0.01 |  |
| c1ccc(Nc2ncc3nc(Nc4ccccc4)n(C4CCCC4)c3n2)cc1 | > 5000 | > 10000 | 2.7 |  |
| CN1CCN(c2ccc(Nc3ncc4nc(Nc5ccccc5)n(C5CC5)c4n3)cc2)CC1 | > 5000 | 2860 | 18 |  |
